According to patent publication US10189838B2, “Aza-oxo-indoles for the treatment and prophylaxis of respiratory syncytial virus infection” (Hoffmann-La Roche Inc., priority 2013, dated 2019):

Assays:
[1] = tested on: RSV Long strain; experiment: Viral cytopathic effect (CPE) assay, RSV Long strain; type: cell-based, Respiratory Syncytial Virus; conditions: human respiratory syncytial virus, 144 h, cell viability after 6 days (Cell Counting kit-8)
Procedure, shortened: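 Cells in DMEM with 10% FBS infected next day with RSV Long (A subtype) at a dose giving ~80–90% CPE after 6 days, alongside half-log compound dilutions. Viability at day 6 by CCK-8, absorbance 450 nm referenced to 630 nm; EC50 is concentration giving 50% of maximal protection.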

[2] = Single dose PK in male ICR mouse (IV and PO); type: in vivo; conditions: male ICR mice; for AUC(0-t) / bioavailability: mouse, plasma; for bioavailability: read-out: F (bioavailability)
Method: The single dose PK in male ICR mouse was performed to assess their pharmacokinetic properties. Two groups of animals were dosed via either bolus intravenous (IV) or oral gavage (PO) of the respective compound. The animals for oral administration were fasted overnight prior to dosing and food was resumed 4 hours postdose. Blood samples (approximately 400 μL) were collected via cardiac puncture after euthanasia by carbon dioxide inhalation at 2 minutes, 5 minutes, 15 minutes, 30 minutes, 1 hour, 2 hours, 4 hours, 6 hours, 8 hours, and 24 hours postdose for IV group, and at 5 minutes, 15 minutes, 30 minutes, 1 hour, 2 hours, 4 hours, 6 hours, 8 hours, and 24 hours postdose for PO group. Blood samples were placed into tubes containing sodium heparin and centrifuged at 8000 rpm for 6 minutes at 4° C. to separate plasma from the samples.
Following centrifugation, the resulting plasma was transferred to clean tubes for bioanalysis on LC/MS/MS. The pharmacokinetic parameters were calculated using non-compartmental module of WinNonlin® Professional 5.2.

[3] = tested on: RSV infection; conditions: selected infants, intramuscularly 15 mg/kg once a month for the RSV season; cited from earlier work

Compound: CS(=O)(=O)CCn1c(CN2C(=O)C3(CC3)c3ccncc32)cc2cc(Cl)cnc21 [Example 2-6, 1′-({5-Chloro-1-[2-(methylsulfonyl)ethyl]-1H-pyrrolo[2,3-b]pyridin-2-yl}methyl)spiro[cyclopropane-1,3′-pyrrolo[2,3-c]pyridin]-2′(1′H)-one]
- EC50 [1]: 27.3 nM
- CLz ([2]; IV 5 mg/kg): 23.7 mL/min/kg
- t1/2z ([2]; IV 5 mg/kg): 0.724 h
- F (bioavailability) ([2]; PO 25 mg/kg): 58.3%
- t1/2z ([2]; PO 25 mg/kg): 0.701 h
- AUC(0-t) ([2]; IV 5 mg/kg): 3510 ng·h/mL
- AUC(0-t) ([2]; PO 25 mg/kg): 10200 ng·h/mL

Compound: CS(=O)(=O)CCn1c(CN2C(=O)C3(CC3)c3ccncc32)nc2cc(Cl)ccc21 [Example 34-1, 1′-({5-Chloro-1-[2-(methylsulfonyl)ethyl]-1H-benzimidazol-2-yl}methyl)spiro[cyclopropane-1,3′-pyrrolo[2,3-c]pyridin]-2′(1′H)-one]
- EC50 [1]: 12 nM
- CLz ([2]; IV 1.45 mg/kg): 64.8 mL/min/kg
- t1/2z ([2]; IV 1.45 mg/kg): 10.2 h
- t1/2z ([2]; PO 25 mg/kg): 2.98 h
- AUC(0-t) ([2]; IV 1.45 mg/kg): 373 ng·h/mL
- AUC(0-t) ([2]; PO 25 mg/kg): 3280 ng·h/mL
- bioavailability ([2]; PO 25 mg/kg): 51%

Compound: CS(=O)(=O)CCn1c(CN2C(=O)C3(CC3)c3ccncc32)nc2cc(Cl)cc(F)c21 [Example 37-1, 1′-({5-Chloro-7-fluoro-1-[2-(methylsulfonyl)ethyl]-1H-benzimidazol-2-yl}methyl)spiro[cyclopropane-1,3′-pyrrolo[2,3-c]pyridin]-2′(1′H)-one]
- EC50 [1]: 9 nM
- CLz ([2]; IV 2 mg/kg): 44.4 mL/min/kg
- t1/2z ([2]; IV 2 mg/kg): 0.976 h
- t1/2z ([2]; PO 25 mg/kg): 3.74 h
- AUC(0-t) ([2]; IV 2 mg/kg): 751 ng·h/mL
- AUC(0-t) ([2]; PO 25 mg/kg): 9290 ng·h/mL
- bioavailability ([2]; PO 25 mg/kg): 99%

Compound: O=C1N(Cc2nc3cc(Cl)cc(F)c3n2CC2COC2)c2cnccc2C12CC2 [Example 38-3, 1′-{[5-Chloro-7-fluoro-1-(oxetan-3-ylmethyl)-1H-benzimidazol-2-yl]methyl}spiro[cyclopropane-1,3′-pyrrolo[2,3-c]pyridin]-2′(1′H)-one]
- EC50 [1]: 30 nM

Compound: NC1(Cn2c(CN3C(=O)C4(CC4)c4ccncc43)nc3cc(Cl)ccc32)COC1 [Example 39-1, 1′-({1-[(3-Aminooxetan-3-yl)methyl]-5-chloro-1H-benzimidazol-2-yl}methyl)spiro[cyclopropane-1,3′-pyrrolo[2,3-c]pyridin]-2′(1′H)-one]
- EC50 [1]: 18 nM

Compound: NC1(Cn2c(CN3C(=O)C4(CC4)c4ccncc43)nc3cc(Cl)cc(F)c32)COC1 [Example 39-2, 1′-({1-[(3-Aminooxetan-3-yl)methyl]-5-chloro-7-fluoro-1H-benzimidazol-2-yl}methyl)spiro[cyclopropane-1,3′-pyrrolo[2,3-c]pyridin]-2′(1′H)-one]
- EC50 [1]: 227 nM

Compound: palivizumab
- reduction of hospitalization rate caused by RSV infection [3]: 45-55%
